In publication PMC9890130 (Clinical cancer research : an official journal of the …, 2023):
Bridge positions count the residues as written; N and C are the ends. Square brackets hold non-standard residues; d marks the D form. Peptide text beside a SMILES is read from it. * marks the point of attachment. DOTA = O=C(O)CN1CCN(CC(=O)O)CCN(CC(=O)*)CCN(CC(=O)O)CC1; Trp(1-CH2COOH) = N[C@@H](Cc1cn(CC(=O)O)c2ccccc12)C(=O)O; Hyp = O=C(O)[C@@H]1C[C@@H](O)CN1; NMeNle = CCCC[C@H](NC)C(=O)O; NMeA = CN[C@@H](C)C(=O)O

Assays:
Human PD-L1 Fc-tagged = Human PD-L1 Fc-tagged (Homo sapiens, UniProt Q9NZQ7); test: Surface plasmon resonance; format: binding; conditions: read-out: KD (affinity for PD-L1); SPR, Biacore T200, CM5 chip, 25°C, 1:1 kinetics model; n=3
[1] = test system: MDAMB231, BFTC909, SUM149, and SCaBER cells; test: In vitro binding assay, blocking with non-radioactive DK223; format: cell-based, human; conditions: 1 μM non-radioactive DK223; P<0.0001
SUM149 cells = test: In vitro binding assay with [^68Ga]Ga-DK223; format: cell-based, human; conditions: 1×10^6 cells, ~1 μCi, 45 min at 4°C
[2] = In vivo stability of [^68Ga]Ga-DK223; parameters: species or system mice; conditions: urine collected at 60 min after i.v. injection, radio-HPLC; n=3
in vivo = conditions: NSG, mouse, iv, total radioactivity
MDAMB231 xenografts [3] = test: Ex vivo biodistribution in mice with MDAMB231 xenografts; conditions: NSG mice bearing MDAMB231 tumors, n=4-5
[4] = predicted residence time in human organ from mouse pharmacokinetic data
MDAMB231 xenografts [5] = conditions: NSG, mouse, in vivo, iv, 1 h
[6] = Ex vivo biodistribution in SCaBER xenografts; parameters: species or system NSG mice; conditions: NSG, mouse, tumor, iv, 50 uCi, total radioactivity
SCaBER cells = test: In vitro binding assay with [^68Ga]Ga-DK223; format: cell-based, human; conditions: 1×10^6 cells, ~1 μCi, 45 min at 4°C
[7] = Ex vivo biodistribution in BFTC909 xenografts; parameters: species or system NSG mice; conditions: NSG, mouse, tumor, iv, 50 uCi, total radioactivity
[8] = Biodistribution of [^68Ga]Ga-DK385; format: in vivo, mice; conditions: mouse, iv, 50 uCi, total radioactivity
BFTC909 xenografts [9] = test: [^68Ga]Ga-DK223 PET-CT of BFTC909 xenografts after aPD-L1 treatment; format: in vivo, NSG mice
BFTC909 cells = test: [^68Ga]Ga-DK223 uptake in BFTC909 cells with and without aPD-L1 mAbs; format: cell-based, human; conditions: 60 nM mAb
BFTC909 xenografts [10] = format: in vivo, NSG mice; conditions: 10 mg/kg; for accessible PD-L1 levels: 120 h of treatment, tumor %ID/g as fraction of saline group; for [^68Ga]Ga-DK223 tumor uptake versus saline controls: 120 h treatment
[11] = cited from earlier work
[12] = %ID/g [^68Ga]Ga-DK223, Adrenals
[13] = %ID/g [^68Ga]Ga-DK223, Pancreas
[14] = 24 h after 10 mg/kg mAb i.v., PET 60 min after tracer

## CCCC[C@H]1C(=O)N(C)[C@@H](CCCC)C(=O)N[C@@H](CCCCNC(=O)CN2CCN(CC(=O)O)CCN(CC(=O)O)CCN(CC(=O)O)CC2)C(=O)N[C@H](C(=O)NCC(N)=O)CSCC(=O)N[C@@H](Cc2ccc(O)cc2)C(=O)N(C)[C@@H](C)C(=O)N[C@@H](CC(N)=O)C(=O)N2CCC[C@H]2C(=O)N[C@@H](Cc2c[nH]cn2)C(=O)N[C@@H](CCC(=O)O)C(=O)N2C[C@H](O)C[C@H]2C(=O)N[C@@H](Cc2c[nH]c3ccccc23)C(=O)N[C@@H](CO)C(=O)N[C@@H](Cc2cn(CC(=O)O)c3ccccc23)C(=O)N1C [DK223] ({CH2CO}-Y[NMeA]NPHE[Hyp]WS[Trp(1-CH2COOH)][NMeNle][NMeNle]K(DOTA)CG-NH2; thioether N-14)
Human PD-L1 Fc-tagged
  Kd: 1.01 ± 0.83 nM
[1]
  [^68Ga]Ga-DK223 uptake in cells incubated with non-radioactive DK223: significantly reduced

## CCCC[C@H]1C(=O)N(C)[C@@H](CCCC)C(=O)N[C@@H](CCCCNC(=O)CN2CCN(CC(=O)O)CCN(CC(=O)O)CCN(CC(=O)O)CC2)C(=O)N[C@H](C(=O)NCC(N)=O)CSCC(=O)N[C@@H](Cc2ccc(O)cc2)C(=O)N(C)[C@@H](C)C(=O)N[C@@H](CC(N)=O)C(=O)N2CCC[C@H]2C(=O)N[C@@H](Cc2c[nH]cn2)C(=O)N[C@@H](CCC(=O)O)C(=O)N2C[C@H](O)C[C@H]2C(=O)N[C@@H](Cc2c[nH]c3ccccc23)C(=O)N[C@@H](CO)C(=O)N[C@@H](Cc2cn(CC(=O)O)c3ccccc23)C(=O)N1C [[^68Ga]Ga-DK223, metal not drawn] ({CH2CO}-Y[NMeA]NPHE[Hyp]WS[Trp(1-CH2COOH)][NMeNle][NMeNle]K(DOTA)CG-NH2; thioether N-14)
SUM149 cells
  in vitro uptake: less than 2 %IA
[2]
  in vivo stability, urine: no metabolic cleavage
In vivo; [12]
  tissue uptake at 0.5 h: 2.22 ± 0.19 %ID/g
  tissue uptake at 1.5 h: 0.18 ± 0.03 %ID/g
  tissue uptake at 3 h: 0.16 ± 0.11 %ID/g
In vivo; %ID/g [^68Ga]Ga-DK223, Bladder
  tissue uptake at 0.5 h: 4.09 ± 0.49 %ID/g
  tissue uptake at 1 h: 1.42 ± 0.12 %ID/g
  tissue uptake at 1.5 h: 0.78 ± 0.07 %ID/g
  tissue uptake at 3 h: 1.28 ± 0.32 %ID/g
In vivo; %ID/g [^68Ga]Ga-DK223, Blood
  tissue uptake at 0.5 h: 7.63 ± 0.87 %ID/g
  tissue uptake at 1.5 h: 2.14 ± 0.08 %ID/g
  tissue uptake at 3 h: 1.72 ± 0.04 %ID/g
In vivo; %ID/g [^68Ga]Ga-DK223, Brain
  tissue uptake at 0.5 h: 0.22 ± 0.05 %ID/g
  tissue uptake at 1.5 h: 0.05 ± 0.01 %ID/g
  tissue uptake at 3 h: 0.04 ± 0.01 %ID/g
In vivo; %ID/g [^68Ga]Ga-DK223, Femur
  tissue uptake at 0.5 h: 1.74 ± 0.14 %ID/g
  tissue uptake at 1.5 h: 0.59 ± 0.04 %ID/g
  tissue uptake at 3 h: 0.64 ± 0.07 %ID/g
In vivo; %ID/g [^68Ga]Ga-DK223, Heart
  tissue uptake at 0.5 h: 2.49 ± 0.3 %ID/g
  tissue uptake at 1.5 h: 0.73 ± 0.03 %ID/g
  tissue uptake at 3 h: 0.46 ± 0.03 %ID/g
In vivo; %ID/g [^68Ga]Ga-DK223, Liver
  tissue uptake at 0.5 h: 2.85 ± 0.41 %ID/g
  tissue uptake at 1 h: 1.31 ± 0.08 %ID/g
  tissue uptake at 1.5 h: 0.91 ± 0.11 %ID/g
  tissue uptake at 3 h: 0.82 ± 0.09 %ID/g
In vivo; %ID/g [^68Ga]Ga-DK223, Lung
  tissue uptake at 0.5 h: 11 ± 2.29 %ID/g
  tissue uptake at 1.5 h: 5.3 ± 1.68 %ID/g
  tissue uptake at 3 h: 2.98 ± 0.71 %ID/g
In vivo; %ID/g [^68Ga]Ga-DK223, Muscle
  tissue uptake at 0.5 h: 0.85 ± 0.09 %ID/g
  tissue uptake at 1.5 h: 0.17 ± 0.01 %ID/g
  tissue uptake at 3 h: 0.08 ± 0.02 %ID/g
In vivo; [13]
  tissue uptake at 0.5 h: 2.01 ± 0.54 %ID/g
  tissue uptake at 1 h: 0.45 ± 0.05 %ID/g
  tissue uptake at 1.5 h: 0.39 ± 0.01 %ID/g
  tissue uptake at 3 h: 0.24 ± 0.03 %ID/g
In vivo; %ID/g [^68Ga]Ga-DK223, Spleen
  tissue uptake at 0.5 h: 2.45 ± 0.51 %ID/g
  tissue uptake at 1 h: 1.05 ± 0.07 %ID/g
  tissue uptake at 1.5 h: 0.71 ± 0.06 %ID/g
  tissue uptake at 3 h: 0.58 ± 0.03 %ID/g
In vivo; %ID/g [^68Ga]Ga-DK223, Thymus
  tissue uptake at 0.5 h: 7.02 ± 1.06 %ID/g
  tissue uptake at 1 h: 3.53 ± 0.27 %ID/g
  tissue uptake at 1.5 h: 1.26 ± 0.47 %ID/g
  tissue uptake at 3 h: 1.52 ± 0.75 %ID/g
In vivo; %ID/g [^68Ga]Ga-DK223, Tumor
  tissue uptake at 0.5 h: 14.3 ± 1.54 %ID/g
  tissue uptake at 1.5 h: 12.2 ± 0.32 %ID/g
  tissue uptake at 3 h: 11.6 ± 0.79 %ID/g
MDAMB231 xenografts [3]; 5 min after injection
  %ID/g [^68Ga]Ga-DK223, Kidney: 28.59 ± 2.4 %ID/g
MDAMB231 xenografts [3]; 30 min after injection
  %ID/g [^68Ga]Ga-DK223, Kidney: 24.4 ± 1.5 %ID/g
MDAMB231 xenografts [3]; 60 min after injection
  %ID/g [^68Ga]Ga-DK223, Kidney: 22.99 ± 2.01 %ID/g
MDAMB231 xenografts [3]; 90 min after injection
  %ID/g [^68Ga]Ga-DK223, Kidney: 16.23 ± 0.8 %ID/g
MDAMB231 xenografts [3]; 180 min after injection
  %ID/g [^68Ga]Ga-DK223, Kidney: 19.14 ± 1.32 %ID/g
[4]
  Residence time, Adrenals: 0.00014 h
  Residence time, Bladder: 0.00187 h
  Residence time, Blood: 0.1753 h
  Residence time, Brain: 0.00118 h
  Residence time, Femur: 0.03956 h
  Residence time, Heart: 0.0151 h
  Residence time, Kidney: 0.0337 h
  Residence time, Large Intestine (with contents): 0.00099 h
  Residence time, Liver: 0.01633 h
  Residence time, Lung: 0.03245 h
  Residence time, Muscle: 0.06168 h
  Residence time, Ovaries: 0.00011 h
  Residence time, Pancreas: 0.00052 h
  Residence time, Small Intestine (with contents): 0.00453 h
  Residence time, Spleen: 0.00129 h
  Residence time, Stomach (with contents): 0.00072 h
  Residence time, Thymus: 0.00047 h
  Residence time, Uterus: 0.00114 h
MDAMB231 xenografts [5]
  %ID/g [^68Ga]Ga-DK223, Adrenals: 4.74 ± 3.64 %ID/g
  %ID/g [^68Ga]Ga-DK223, Blood: 3.05 ± 0.11 %ID/g
  %ID/g [^68Ga]Ga-DK223, Femur: 0.89 ± 0.06 %ID/g
  %ID/g [^68Ga]Ga-DK223, Heart: 0.95 ± 0.07 %ID/g
  %ID/g [^68Ga]Ga-DK223, Lung: 4.7 ± 0.42 %ID/g
  %ID/g [^68Ga]Ga-DK223, Muscle: 0.36 ± 0.04 %ID/g
  %ID/g [^68Ga]Ga-DK223, Tumor: 15.21 ± 1.43 %ID/g
MDAMB231 xenografts [5]; female
  %ID/g [^68Ga]Ga-DK223, Ovaries: 0.93 ± 0.08 %ID/g
[6]
  tissue uptake at 1 h: < 3 %ID/g
SCaBER cells
  in vitro uptake: less than 2 %IA
[7]
  tissue uptake at 1 h: 21 ± 2.1 %ID/g

## CCCC[C@H]1C(=O)N(C)[C@@H](CCCC)C(=O)N[C@@H](CCCCNC(=O)CCC(C(=O)O)N2CCN(CC(=O)O)CCN(CC(=O)O)CCN(CC(=O)O)CC2)C(=O)N[C@H](C(=O)NCC(N)=O)CSCC(=O)N[C@@H](Cc2ccc(O)cc2)C(=O)N(C)[C@@H](C)C(=O)N[C@@H](CC(N)=O)C(=O)N2CCC[C@H]2C(=O)N[C@@H](Cc2c[nH]cn2)C(=O)N[C@@H](CCC(=O)O)C(=O)N2C[C@H](O)C[C@H]2C(=O)N[C@@H](Cc2c[nH]c3ccccc23)C(=O)N[C@@H](CO)C(=O)N[C@@H](Cc2cn(CC(=O)O)c3ccccc23)C(=O)N1C (stereo partly shown) [[^68Ga]Ga-DK385, metal not drawn]
[8]; tumor and blood
  tissue to tissue ratio at 1 h: 2.32 ± 0.38
[8]; tumor and muscle
  tissue to tissue ratio at 1 h: 19.9 ± 2.15
[8]; tumor
  tissue uptake at 1 h: 8.5 ± 1.67 %ID/g

## avelumab
BFTC909 xenografts [9]; [14]
  [^68Ga]Ga-DK223 uptake in tumors (PET) after mAb treatment: significantly lower uptake
BFTC909 xenografts [9]; 72 h after 10 mg/kg mAb i.v., avelumab compared with durvalumab
  [^68Ga]Ga-DK223 uptake in tumors (PET) after mAb treatment: increased
BFTC909 cells
  [^68Ga]Ga-DK223 uptake in BFTC909 cells in presence of mAb: less than 1%
BFTC909 xenografts [10]; 24 h treatment, P<0.0001
  reduction of [^68Ga]Ga-DK223 tumor uptake versus saline: more than 80%
BFTC909 xenografts [10]
  accessible PD-L1 levels: increase in accessible PD-L1 levels
  [^68Ga]Ga-DK223 tumor uptake versus saline controls: no significant differences
[11]
  half-life: 6.1 days

## durvalumab
BFTC909 xenografts [9]; [14]
  [^68Ga]Ga-DK223 uptake in tumors (PET) after mAb treatment: significantly lower uptake
BFTC909 cells
  [^68Ga]Ga-DK223 uptake in BFTC909 cells in presence of mAb: less than 1%
BFTC909 xenografts [10]
  accessible PD-L1 levels: less than 10%
  [^68Ga]Ga-DK223 tumor uptake versus saline controls: continued reduction in accessible target levels
[11]
  half-life: 18 days
